ChEMBL document CHEMBL1158969, “Studies on the synthesis of sesquiterpene lactones, 12. Synthesis of (+)-colartin, (+)-arbusculin A, and their C-4 epimers and their biological activities” (1991)
Calls of active or inactive are those of the source.

Experiments:
Assay type in all cases: functional, organism-based
Brassica juncea [1] = experiment: Growth regulatory activity on Brassica juncea root assessed as inhibition of germination and seedling growth at 500 ppm after 10 days
Cucumis sativus [2] = experiment: Growth regulatory activity on Cucumis sativus root assessed as complete inhibition of germination and seedling growth at 500 ppm after 10 days
Cucumis sativus [3] = experiment: Growth regulatory activity on Cucumis sativus root assessed as inhibition of germination and seedling growth at 250 ppm after 10 days
Cucumis sativus [4] = experiment: Growth regulatory activity on Cucumis sativus root assessed as complete inhibition of germination and seedling growth at 1000 ppm after 10 days
Echinochloa frumentacea [5] = experiment: Growth regulatory activity on Echinochloa frumentacea root assessed as complete inhibition of germination and seedling growth at 1000 ppm after 10 days
Echinochloa frumentacea [6] = experiment: Growth regulatory activity on Echinochloa frumentacea stem assessed as inhibition of germination and seedling growth at 1000 ppm after 10 days
Brassica juncea [7] = experiment: Growth regulatory activity on Brassica juncea root assessed as complete inhibition of germination and seedling growth at 1000 ppm after 10 days
Brassica juncea [8] = experiment: Growth regulatory activity on Brassica juncea stem assessed as inhibition of germination and seedling growth at 1000 ppm after 10 days
Cucumis sativus [9] = experiment: Growth regulatory activity on Cucumis sativus stem assessed as complete inhibition of germination and seedling growth at 1000 ppm after 10 days
Echinochloa frumentacea [10] = experiment: Growth regulatory activity on Echinochloa frumentacea root assessed as inhibition of germination and seedling growth at 500 ppm after 10 days
Cucumis sativus [11] = experiment: Growth regulatory activity on Cucumis sativus stem assessed as inhibition of germination and seedling growth at 250 ppm after 10 days
Cucumis sativus [12] = experiment: Growth regulatory activity on Cucumis sativus stem assessed as complete inhibition of germination and seedling growth at 500 ppm after 10 days
Cucumis sativus [13] = experiment: Growth regulatory activity on Cucumis sativus stem assessed as inhibition of germination and seedling growth at 1000 ppm after 10 days
Echinochloa frumentacea [14] = experiment: Growth regulatory activity on Echinochloa frumentacea stem assessed as inhibition of germination and seedling growth at 500 ppm after 10 days
Echinochloa frumentacea [15] = experiment: Growth regulatory activity on Echinochloa frumentacea stem assessed as complete inhibition of germination and seedling growth at 1000 ppm after 10 days
Brassica juncea [16] = experiment: Growth regulatory activity on Brassica juncea stem assessed as complete inhibition of germination and seedling growth at 500 ppm after 10 days
Brassica juncea [17] = experiment: Growth regulatory activity on Brassica juncea root assessed as inhibition of germination and seedling growth at 250 ppm after 10 days
Cucumis sativus [18] = experiment: Growth regulatory activity on Cucumis sativus stem assessed as inhibition of germination and seedling growth at 100 ppm after 10 days
Brassica juncea [19] = experiment: Growth regulatory activity on Brassica juncea root assessed as complete inhibition of germination and seedling growth at 500 ppm after 10 days
Brassica juncea [20] = experiment: Growth regulatory activity on Brassica juncea stem assessed as inhibition of germination and seedling growth at 250 ppm after 10 days
Cucumis sativus [21] = experiment: Growth regulatory activity on Cucumis sativus root assessed as inhibition of germination and seedling growth at 100 ppm after 10 days
Brassica juncea [22] = experiment: Growth regulatory activity on Brassica juncea stem assessed as complete inhibition of germination and seedling growth at 1000 ppm after 10 days
Echinochloa frumentacea [23] = experiment: Growth regulatory activity on Echinochloa frumentacea root assessed as inhibition of germination and seedling growth at 1000 ppm after 10 days
Cucumis sativus [24] = experiment: Growth regulatory activity on Cucumis sativus root assessed as inhibition of germination and seedling growth at 500 ppm after 10 days
Brassica juncea [25] = experiment: Growth regulatory activity on Brassica juncea root assessed as inhibition of germination and seedling growth at 1000 ppm after 10 days
Cucumis sativus [26] = experiment: Growth regulatory activity on Cucumis sativus stem assessed as inhibition of germination and seedling growth at 500 ppm after 10 days
Cucumis sativus [27] = experiment: Growth regulatory activity on Cucumis sativus root assessed as inhibition of germination and seedling growth at 1000 ppm after 10 days

Measured: growth inhibition (GI)

C[C@@H]1C(=O)O[C@H]2[C@H]1CC[C@@]1(C)CC=C[C@@](C)(O)[C@H]21
active: Brassica juncea [1] | Cucumis sativus [2] | Cucumis sativus [3] | Cucumis sativus [4] | Echinochloa frumentacea [5] | Echinochloa frumentacea [6] | Brassica juncea [7] | Brassica juncea [8] | Cucumis sativus [9] | Echinochloa frumentacea [10] | Cucumis sativus [11]

C=C1C(=O)O[C@@H]2[C@@H]3[C@](C)(CCC[C@@]3(C)O)CC[C@@H]12
active: Cucumis sativus [12] | Cucumis sativus [13] | Cucumis sativus [2] | Cucumis sativus [3] | Echinochloa frumentacea [14] | Echinochloa frumentacea [15] | Brassica juncea [16] | Brassica juncea [17] | Cucumis sativus [4] | Cucumis sativus [18] | Echinochloa frumentacea [5] | Brassica juncea [19] | Brassica juncea [7] | Brassica juncea [20] | Echinochloa frumentacea [10] | Cucumis sativus [21] | Brassica juncea [22]

C[C@@H]1C(=O)O[C@H]2[C@H]1CC[C@@]1(C)CC[C@@H](O)[C@@](C)(O)[C@H]21
active: Echinochloa frumentacea [23] | Echinochloa frumentacea [14] | Cucumis sativus [4] | Cucumis sativus [24] | Brassica juncea [25] | Echinochloa frumentacea [6] | Cucumis sativus [26] | Cucumis sativus [9]

CC1=CCC[C@]2(C)CC[C@@H]3[C@H](OC(=O)[C@H]3C)[C@@H]12
active: Cucumis sativus [24] | Cucumis sativus [27]

C[C@@H]1C(=O)O[C@H]2[C@H]1CC[C@@]1(C)CCC[C@@](C)(O)[C@H]21
active: Cucumis sativus [13] | Brassica juncea [1] | Cucumis sativus [2] | Cucumis sativus [3] | Echinochloa frumentacea [14] | Echinochloa frumentacea [15] | Cucumis sativus [4] | Echinochloa frumentacea [5] | Cucumis sativus [26] | Echinochloa frumentacea [10] | Cucumis sativus [11] | Brassica juncea [22]
